Data as given in patent publication EP2057188B1 (priority 2006, dated 2008).
pEC(50): −log10 of the molar value. Like-named read-outs stand apart in the source and are kept apart here. Ends that are not written are not given here.

Experiments:
[1] = type: in vivo, NIH/Swiss mice; details: 80 nmol/Kg; AUC240
Description: Gavage (1.5g/kg) was given at t=0. Sample was taken at t=30 min.

[2] = IVGTT duration of action assay, single SC injection; type: in vivo, rat; details: compared with 0601GIP3794 (794); @ -120 min
Description: In the typical IVGTT assays the test sample was administered by IV infusion. The IV infusion of sample was initiated at t = -30min and continued through t = 90. IV glucose was given at t = 0. To determine a duration of action using the IVGTT assay, the sample was injected SC as a single injection at one time point indicated (e.g., t = -240, -120, -60 or -30) prior to administration of glucose. IV glucose was given at t = 0.

[3] = system: cardiomyocyte Gs- and Gi-coupled receptors; experiment: cAMP assay in neonatal cardiomyocytes; type: cell-based, rat
Description: Activation of cardiomyocyte Gs- and Gi-coupled receptors was determined as a measure of cAMP production.
Neonatal cardiomyocytes were isolated using a commercially available system. […] Sprague Dawley neonatal rats (1-2 days old) were decapitated and the beating heart dissected out into digestion buffer (Cellutron D1 buffer) to dissociate cells. […] The resuspended cells incubated in buffer (Cellutron D3 buffer) for sufficient time to allow optimal dispersion and minimize the need for pipetting to break up clumps. Cells released from the first 2 digestions were discarded since a significant portion of these is red blood cells. Resuspended cells were filtered and allowed to pre-plate for 1 hour on plastic in an incubator in NS media (Cellutron, NJ) in order to remove fibroblasts. After 1 hour of pre-plating, floating cells are removed and the flask rinsed with NS media. The floating cells and the cells in the rinse media were combined and counted. Residual red blood cells, which are smaller that the cardiac myocytes, were not counted.
At Day 1, the NS media was replaced with fresh NS media.
Dose response was determined.
For Gs assays the positive control was 10uM forskolin and negative control was buffer. For Gi assays the positive control was buffer and the negative control was 10uM forskolin.

[4] = inhibition of gastric emptying, subcutaneous, cited from earlier work

Row | Compound | Basal Glucose Lowering at 80 nmol/Kg [1] | Duration In The Rat IVGTT Assay [2] | other results
1 | CC[C@H](C)[C@H](NC(=O)[C@H](CO)NC(=O)[C@H](Cc1ccc(O)cc1)NC(=O)[C@H](CC(=O)O)NC(=O)[C@H](CO)NC(=O)[C@@H](NC(=O)[C@H](Cc1ccccc1)NC(=O)[C@@H](NC(=O)CNC(=O)[C@H](CCC(=O)O)NC(=O)[C@@H](C)NC(=O)[C@@H](N)Cc1ccc(O)cc1)[C@@H](C)O)[C@@H](C)CC)C(=O)N[C@@H](C)C(=O)N[C@@H](CCSC)C(=O)N[C@@H](CC(=O)O)C(=O)N[C@@H](CCCCN)C(=O)N[C@H](C(=O)N[C@@H](Cc1c[nH]cn1)C(=O)N[C@@H](CCC(N)=O)C(=O)N[C@@H](CCC(N)=O)C(=O)N[C@@H](CC(=O)O)C(=O)N[C@@H](Cc1ccccc1)C(=O)N[C@H](C(=O)N[C@@H](CC(N)=O)C(=O)N[C@@H](Cc1c[nH]c2ccccc12)C(=O)N[C@@H](CC(C)C)C(=O)N[C@@H](CC(C)C)C(=O)N[C@@H](C)C(=O)N[C@@H](CCC(N)=O)C(=O)N[C@@H](CCCCN)C(=O)N1CCC[C@H]1C(=O)N[C@@H](CCCCN)C(=O)N[C@@H](CO)C(=O)N[C@@H](C)C(=O)N[C@@H](CCCNC(=N)N)C(=O)N1CCC[C@H]1C(=O)N[C@@H](CO)C(N)=O)C(C)C)[C@@H](C)CC [0601 GIP48 21] | -5%, AUC240 | <794@-120 min | –
2 | CC[C@H](C)[C@H](NC(=O)[C@H](CO)NC(=O)[C@H](Cc1ccc(O)cc1)NC(=O)[C@H](CC(=O)O)NC(=O)[C@H](CO)NC(=O)[C@@H](NC(=O)[C@H](Cc1ccccc1)NC(=O)[C@@H](NC(=O)CNC(=O)[C@H](CCC(=O)O)NC(=O)[C@@H](C)NC(=O)[C@@H](N)Cc1ccc(O)cc1)[C@@H](C)O)[C@@H](C)CC)C(=O)N[C@@H](C)C(=O)N[C@@H](CCSC)C(=O)N[C@@H](CC(=O)O)C(=O)N[C@@H](CCCCN)C(=O)N[C@H](C(=O)N[C@@H](Cc1c[nH]cn1)C(=O)N[C@@H](CCC(N)=O)C(=O)N[C@@H](CCC(N)=O)C(=O)N[C@@H](CC(=O)O)C(=O)N[C@@H](Cc1ccccc1)C(=O)N[C@H](C(=O)N[C@@H](CC(N)=O)C(=O)N[C@@H](Cc1c[nH]c2ccccc12)C(=O)N[C@@H](CC(C)C)C(=O)N[C@@H](CC(C)C)C(=O)N[C@@H](C)C(=O)N[C@@H](CCC(N)=O)C(=O)N[C@@H](CCCCN)C(=O)N1CCC[C@H]1C(=O)N[C@@H](CCCCN)C(=O)N[C@@H](CCCCN)C(=O)N[C@@H](CC(C)C)C(=O)N[C@@H](CCCCN)C(=O)N1CCC[C@H]1C(=O)N[C@@H](CO)C(N)=O)C(C)C)[C@@H](C)CC [0601 GIP48 22] | -11%, AUC240 | <794@-120 min | –
3 | CC[C@H](C)[C@H](NC(=O)[C@H](CO)NC(=O)[C@H](Cc1ccc(O)cc1)NC(=O)[C@H](CC(=O)O)NC(=O)[C@H](CO)NC(=O)[C@@H](NC(=O)[C@H](Cc1ccccc1)NC(=O)[C@@H](NC(=O)CNC(=O)[C@H](CCC(=O)O)NC(=O)[C@@H](C)NC(=O)[C@@H](N)Cc1ccc(O)cc1)[C@@H](C)O)[C@@H](C)CC)C(=O)N[C@@H](C)C(=O)N[C@@H](CCSC)C(=O)N[C@@H](CC(=O)O)C(=O)N[C@@H](CCCCN)C(=O)N[C@H](C(=O)N[C@@H](Cc1c[nH]cn1)C(=O)N[C@@H](CCC(N)=O)C(=O)N[C@@H](CCC(N)=O)C(=O)N[C@@H](CC(=O)O)C(=O)N[C@@H](Cc1ccccc1)C(=O)N[C@H](C(=O)N[C@@H](CC(N)=O)C(=O)N[C@@H](Cc1c[nH]c2ccccc12)C(=O)N[C@@H](CC(C)C)C(=O)N[C@@H](CC(C)C)C(=O)N[C@@H](C)C(=O)N[C@@H](CCC(N)=O)C(=O)N[C@@H](CCCCN)C(=O)N1CCC[C@H]1C(=O)N[C@@H](CO)C(=O)N1CCC[C@H]1C(=O)N[C@@H](CCCCN)C(=O)N[C@@H](CCCCN)C(=O)N[C@H](C(=O)N[C@@H](CCCNC(=N)N)C(=O)N[C@@H](Cc1ccc(O)cc1)C(=O)N[C@@H](CO)C(N)=O)[C@@H](C)CC)C(C)C)[C@@H](C)CC [0601 GIP48 23] | -23%, AUC2240 | <794@-120 min | –
4 | CC[C@H](C)[C@H](NC(=O)[C@H](CO)NC(=O)[C@H](Cc1ccc(O)cc1)NC(=O)[C@H](CC(=O)O)NC(=O)[C@H](CO)NC(=O)[C@@H](NC(=O)[C@H](Cc1ccccc1)NC(=O)[C@@H](NC(=O)CNC(=O)[C@H](CCC(=O)O)NC(=O)[C@@H](C)NC(=O)[C@@H](N)Cc1ccc(O)cc1)[C@@H](C)O)[C@@H](C)CC)C(=O)N[C@@H](C)C(=O)N[C@@H](CCSC)C(=O)N[C@@H](CC(=O)O)C(=O)N[C@@H](CCCCN)C(=O)N[C@H](C(=O)N[C@@H](Cc1c[nH]cn1)C(=O)N[C@@H](CCC(N)=O)C(=O)N[C@@H](CCC(N)=O)C(=O)N[C@@H](CC(=O)O)C(=O)N[C@@H](Cc1ccccc1)C(=O)N[C@H](C(=O)N[C@@H](CC(N)=O)C(=O)N[C@@H](Cc1c[nH]c2ccccc12)C(=O)N[C@@H](CC(C)C)C(=O)N[C@@H](CC(C)C)C(=O)N[C@@H](C)C(=O)N[C@@H](CCC(N)=O)C(=O)N[C@@H](CCCCN)C(=O)N1CCC[C@H]1C(=O)N[C@@H](CCC(N)=O)C(=O)N[C@@H](CCCCN)C(=O)N[C@H](C(=O)N[C@@H](CCCNC(=N)N)C(=O)N[C@@H](Cc1ccc(O)cc1)C(=O)N[C@@H](CO)C(N)=O)[C@@H](C)CC)C(C)C)[C@@H](C)CC [0601 GIP48 53] | -20%, AUC240 | < 794@ -120 min | –
5 | CC[C@H](C)[C@H](NC(=O)[C@H](CO)NC(=O)[C@H](Cc1ccc(O)cc1)NC(=O)[C@H](CC(=O)O)NC(=O)[C@H](CO)NC(=O)[C@@H](NC(=O)[C@H](Cc1ccccc1)NC(=O)[C@@H](NC(=O)CNC(=O)[C@H](CCC(=O)O)NC(=O)[C@@H](C)NC(=O)[C@@H](N)Cc1ccc(O)cc1)[C@@H](C)O)[C@@H](C)CC)C(=O)N[C@@H](C)C(=O)N[C@@H](CCSC)C(=O)N[C@@H](CC(=O)O)C(=O)N[C@@H](CCCCN)C(=O)N[C@H](C(=O)N[C@@H](Cc1c[nH]cn1)C(=O)N[C@@H](CCC(N)=O)C(=O)N[C@@H](CCC(N)=O)C(=O)N[C@@H](CC(=O)O)C(=O)N[C@@H](Cc1ccccc1)C(=O)N[C@H](C(=O)N[C@@H](CC(N)=O)C(=O)N[C@@H](Cc1c[nH]c2ccccc12)C(=O)N[C@@H](CC(C)C)C(=O)N[C@@H](CC(C)C)C(=O)N[C@@H](C)C(=O)N[C@@H](CCC(N)=O)C(=O)N[C@@H](CCCCN)C(=O)N1CCC[C@H]1C(=O)N[C@@H](CCCCN)C(=O)N[C@@H](CCCCN)C(=O)N[C@@H](C)C(=O)N[C@@H](CCCNC(=N)N)C(=O)N[C@@H](Cc1ccc(O)cc1)C(=O)N[C@@H](CO)C(N)=O)C(C)C)[C@@H](C)CC [0601 GIP48 56] | -3%, AUC240 | <794@-120 min | –
6 | HAEGTFTSDVSSYLEGQAAKEFIAWLVKGR-NH2 [GLP-1] | – | – | cAMP activity in cardiomyocytes ([3]; data not shown): very low to no significant activity; EC(50) ([4]; conscious rats ~200g): 1.82 µg; EC(50) ([4]; conscious rats): 2.76 nmol/kg
7 | urocortin: known cardiac myocyte Gs-coupled receptor activator used as a positive control (DNPSLSIDLTFHLLRTLLELARTQSQRERAEQNRIIFDSV; ends and bridges not checked; UniProt P55089 83-122, looked up) | – | – | pEC(50) ([3]; cardiomyocyte Gs-coupled receptor activation, three independent experiments): 9.15
